Read-outs that look alike come from different tables or passages of the source.

The test system of test [1] is HCC827GR cells. Kind of test: MTT viability with Z-VAD-FMK, HCC827GR. Type of test: cell-based, human. To be noted: Z-VAD-FMK 12 µM, 3 h; DBG 48 h. Here is the method: (§1) All culture media were supplemented with FBS (10 %) and P/S (1 %), and the cells were grown at 37 °C in 5 % CO2.
(§2) The cells were treated with MTT and incubated for 2 h. The supernatants were removed, and the remaining formazan crystals were dissolved in DMSO before absorbance measurement at 570 nm using a Multiscan GO spectrophotometer (Thermo Fisher Scientific, Vantaa, Finland).

Test [2] concerns HCC827 cells. Put plainly: MTT viability with Z-VAD-FMK, HCC827. Type of test: cell-based, human. Here is the method:
as §1, §2

Test [3] has as its system HCC827GR cells. As to conditions: GEF 1 μM, SAV 2 nM or both. Here is the method: as §1, §2
Test [4] deals with HCC827 cells. As to conditions: GEF 1 μM, SAV 2 nM or both. How it is done: as §1, §2
In the next test the test system is HaCaT cells. To be noted: GEF 1 μM, SAV 2 nM or both. Here is the method: as §1, §2
Test [5] concerns HCC827GR cells. Put plainly: Soft agar anchorage-independent growth, HCC827GR. To be noted: 2 weeks; for colony number, Control % / colony size, Control %: GEF 1 μM, SAV 2 nM or both. Type of test: cell-based, human. Here is the method:
(§3) The anchorage-independent cell growth assay was performed in 6-well plates with dual agar layers containing 0.6 % agar (lower layer) and 0.3 % agar (upper layer) supplemented with BME, 2 mM L-glutamine, 5 μg/ml gentamicin, and 10 % FBS. After 2 weeks of incubation, the number of colonies was assessed using a microscope (Leica, Wetzlar, Germany), and the mean colony area was analyzed using i-Solution ^TM software (Vancouver, BC, Canada).

The subject of test [6] is HCC827 cells. Put plainly: Soft agar anchorage-independent growth, HCC827. Type of test: cell-based, human. To be noted: 2 weeks; GEF 1 μM, SAV 2 nM or both. How it is done:
as §3

In test [7] the test system is HCC827GR cells. Kind of test: MTT viability after NAC pretreatment, HCC827GR. As to conditions: HCC827GR, NAC 4 mM. Type of test: cell-based, human. Here is the method:
as §1, §2

In another test the test system is caspase-3. Put plainly: Immunoblot caspase-3 with NAC pretreatment, HCC827 and HCC827GR cells. Type of test: cell-based, human. As to conditions: for caspase3 protein/actin / caspase3 protein Ratio: NAC 4 mM; for caspase3 protein Ratio: control = 1.00. Here is the method:
(§4) HaCaT cells were grown in DMEM, whereas HCC827 and HCC827GR cells were grown in RPMI 1640. All culture media were supplemented with FBS (10 %) and P/S (1 %), and the cells were grown at 37 °C in 5 % CO2.
(§5) Cells were lysed in RIPA buffer, and protein concentration was determined using a Bio-Rad DC Protein Assay kit (Bio-Rad, Hercules, CA, USA). Protein samples from the cell lysates were resolved by sodium dodecyl sulfate-polyacrylamide gel electrophoresis and then transferred onto polyvinylidene fluoride membranes. The membranes were blocked with 3 % or 5 % skim milk and then incubated at 4 °C overnight with the indicated primary antibodies, followed by the corresponding horseradish peroxidase-conjugated secondary antibodies at RT for 2 h. Protein bands were visualized using western blotting luminol reagent solution and ImageQuant LAS 500 (GE Healthcare, Uppsala, Sweden). The density of the bands was quantified using ImageJ software (NIH, Bethesda, MD, USA).

The next test relates to PARP. Put plainly: Immunoblot PARP with NAC pretreatment, HCC827 and HCC827GR cells. Type of test: cell-based, human. As to conditions: for PARP protein/actin / PARP protein Ratio: NAC 4 mM; for PARP protein Ratio: control = 1.00. Here is the method:
as §4, §5

In a further test the test system is p-MET. Kind of test: Immunoblot p-MET with NAC pretreatment, HCC827 and HCC827GR cells. Type of test: cell-based, human. As to conditions: NAC 4 mM; for p-MET protein Ratio: control = 1.00. Here is the method:
as §4, §5

Test [8] concerns HCC827 cells. Kind of test: MTT viability after NAC pretreatment, HCC827. Type of test: cell-based, human. As to conditions: HCC827, NAC 4 mM. Here is the method:
as §1, §2

The test system of another test is p-EGFR. Kind of test: Immunoblot p-EGFR with NAC pretreatment, HCC827 and HCC827GR cells. Type of test: cell-based, human. As to conditions: NAC 4 mM; for p-EGFR protein Ratio: control = 1.00. How it is done:
as §4, §5

In a further test the test system is p-AKT. Kind of test: Immunoblot p-AKT with NAC pretreatment, HCC827 and HCC827GR cells. Type of test: cell-based, human. As to conditions: NAC 4 mM; for p-AKT protein Ratio: control = 1.00. Here is the method:
as §4, §5

Where [9] appears, read: NAC 4 mM pretreatment, then DBG.

Take “Z-Val-Ala-Asp-(OMe)-fluoromethyl ketone [Z-VAD-FMK]”: the “DBG-mediated inhibition of viability with Z-VAD-FMK” value in the test on HCC827GR cells [1] is “significantly recovered”; with HCC827 cells [2] (Z-VAD-FMK 12 µM, 3 h, DBG 48 h) it was “significantly recovered”. The “DBG-induced apoptosis with Z-VAD-FMK” value in the test on HCC827 cells [2] (Z-VAD-FMK pretreatment, cell line not specified (NSCLC cells)) is reported as “prevented the DBG-induced apoptosis”.

For the molecule `C[C@@H](c1ccc2nccn2c1)n1nnc2ncc(-c3cnn(C)c3)nc21` [SAV, savolitinib, reference compound], the cell viability in the test on HCC827GR cells [3] (24 h, mean, n=3) amounted to 97.44%; in the test with HCC827GR cells [3] (24 h, replicate 1), 102.35%; in the test with HCC827GR cells [3] (24 h, replicate 2), 94.96%; in the test on HCC827GR cells [3] (24 h, replicate 3), 95.02%; with HCC827GR cells [3] (48 h, mean, n=3), 94.70%; in the test on HCC827GR cells [3] (48 h, replicate 1) it was 91.23%. The cell viability was found to be 97.86% in the test with HCC827GR cells [3] (48 h, replicate 2); 95.02% with HCC827GR cells [3] (48 h, replicate 3); 95.55% in the test with HCC827 cells [4] (24 h, mean, n=3); 94.16% with HCC827 cells [4] (24 h, replicate 1); 96.61% in the test with HCC827 cells [4] (24 h, replicate 2); 95.89% in the test with HCC827 cells [4] (24 h, replicate 3). The cell viability turned out to be 94.28% in the test on HCC827 cells [4] (48 h, mean, n=3); 94.71% in the test on HCC827 cells [4] (48 h, replicate 1); 94.13% with HCC827 cells [4] (48 h, replicate 2); 94.00% in the test with HCC827 cells [4] (48 h, replicate 3); 98.31% in the test on HaCaT cells (24 h, mean, n=3); 97.97% with HaCaT cells (24 h, replicate 1). Besides, the cell viability is reported as 99.14% with HaCaT cells (24 h, replicate 2); 97.82% in the test on HaCaT cells (24 h, replicate 3); 95.26% with HaCaT cells (48 h, mean, n=3); 95.75% in the test on HaCaT cells (48 h, replicate 1); 95.82% with HaCaT cells (48 h, replicate 2); 94.21% in the test with HaCaT cells (48 h, replicate 3). Besides, the “colony number, Control %” value with HCC827GR cells [5] was 90.34%. For the same molecule, the “colony size, Control %” value in the test on HCC827GR cells [5] was 125.91%; with HCC827 cells [6], 94.26%. Besides, the “colony formation, in words” value in the test with HCC827GR cells [5] (SAV 2 nM) is “did not significantly alter the colony size and count”; in the test on HCC827 cells [6], “did not significantly alter the colony size and count”.

With `CC(=O)N[C@@H](CS)C(=O)O` [NAC, N-acetyl-L-cysteine, reference compound], the “cell viability (relative to untreated = 100.00)” value in the test with HCC827GR cells [7] (mean of 3) is 99.78; in the test with HCC827GR cells [7] (replicate 1), 99.39; with HCC827GR cells [7] (replicate 2), 100.59; in the test with HCC827GR cells [7] (replicate 3), 99.36; with HCC827 cells [8] (mean of 3), 104.34; in the test with HCC827 cells [8] (replicate 1) it was 105.47. Besides, the “cell viability (relative to untreated = 100.00)” value is on record as 103.68 in the test with HCC827 cells [8] (replicate 2) and 103.89 in the test on HCC827 cells [8] (replicate 3). The caspase3 protein/actin in the test with caspase-3 (HCC827, control 0.39) is 0.48; in the test on caspase-3 (HCC827GR, control 0.59), 0.90. The “caspase3 protein Ratio” value in the test with caspase-3 (HCC827) is listed as 1.23; in the test with caspase-3 (HCC827GR) it was 1.54. Further, the “cleaved caspase-3 level” value in the test on caspase-3 (setting [9]) is on record as “significantly prevented the increase”. The PARP protein/actin with PARP (HCC827, control 0.96) was found to be 1.00; with PARP (HCC827GR, control 0.99), 1.32. Moreover, the entries for the “PARP protein Ratio” value in the test with PARP (HCC827) and in the test with PARP (HCC827GR) were 1.04 and 1.33, respectively. Moreover, the “cleaved PARP level” value in the test with PARP (setting [9]) is listed as “significantly prevented the increase”. Moreover, the p-MET protein/actin was 0.89 with p-MET (HCC827, control 1.17) and 1.03 in the test on p-MET (HCC827GR, control 1.14). The “p-MET protein Ratio” value in the test with p-MET (HCC827) is listed as 0.76; with p-MET (HCC827GR), 0.91. Besides, the p-EGFR protein/actin in the test with p-EGFR (HCC827, control 0.90) is 0.68; with p-EGFR (HCC827GR, control 0.93), 0.93. Further, the “p-EGFR protein Ratio” value is listed as 0.76 in the test with p-EGFR (HCC827) and 1.00 in the test with p-EGFR (HCC827GR). Besides, the p-AKT protein/actin was determined as 0.79 in the test with p-AKT (HCC827, control 1.00) and 0.95 in the test on p-AKT (HCC827GR, control 1.04). In addition, the “p-AKT protein Ratio” value is given as 0.79 with p-AKT (HCC827) and 0.92 with p-AKT (HCC827GR).

Regarding `COc1cc2ncnc(Nc3ccc(F)c(Cl)c3)c2cc1OCCCN1CCOCC1` [GEF, gefitinib, reference compound], the cell viability worked out at 102.64% in the test with HCC827GR cells [3] (24 h, mean, n=3); 103.39% with HCC827GR cells [3] (24 h, replicate 1); 100.47% in the test with HCC827GR cells [3] (24 h, replicate 2); 104.06% in the test on HCC827GR cells [3] (24 h, replicate 3); 96.35% in the test with HCC827GR cells [3] (48 h, mean, n=3); 98.10% in the test with HCC827GR cells [3] (48 h, replicate 1). The cell viability in the test with HCC827GR cells [3] (48 h, replicate 2) is 91.57%; in the test with HCC827GR cells [3] (48 h, replicate 3), 99.38%; with HaCaT cells (24 h, mean, n=3), 65.33%; in the test with HaCaT cells (24 h, replicate 1), 65.07%; with HaCaT cells (24 h, replicate 2) it was 64.14%; in the test on HaCaT cells (24 h, replicate 3) it was 66.80%. For the same molecule, the cell viability in the test with HaCaT cells (48 h, mean, n=3) was determined as 39.87%; with HaCaT cells (48 h, replicate 1), 39.75%; with HaCaT cells (48 h, replicate 2), 40.25%; with HaCaT cells (48 h, replicate 3) it was 39.62%. For the same molecule, the “colony number, Control %” value in the test with HCC827GR cells [5] was determined as 84.14%. Besides, in the test on HCC827GR cells [5], the “colony size, Control %” value is 98.13%.
